The source of these data is a melting point compilation (Tetko et al.; mined from patent text by program, amines drawn as free bases though some values may be those of a salt).

Where only a bound is given, the exact number is not on record here.

For the compound `Cc1ccc(-n2ncc(C(=O)Nc3ccc(N4CCN(C5CCOCC5)CC4)c(C#N)c3)c2C)cc1`, the melting point came out at 258 °C. The value for `CC(=O)N1CCc2cc(-c3ccc4c(c3)CCC3N(C)C(=O)CCC43C)cc([N+](=O)[O-])c21` (single isomer, unassigned; (+)) was 235 to 240 °C. The value for `COc1ccccc1C1(Cl)C(=O)Nc2ccc(Cl)cc21` (stereo not drawn) was 220 to 224 °C; that for `CC1C(=O)N(c2ccc(S(N)(=O)=O)cc2Cl)CN1c1ccccc1` (stereo not drawn) was 202 °C; that for `CCN(CC1Cc2ccccc2N1CC)C(=N)N` (stereo not drawn) was 230 °C.

`O=C(O)Cc1ccc2c3ccccc3n(Cc3ccccc3)c2c1` gave a melting point of 149 to 150 °C. With `CN(CC#Cc1cc(CN2CCOCC2)cc2c(=O)c(C(=O)NCc3ccc(Cl)cc3)cn(C)c12)CC(O)CO` (stereo not drawn) the figure was 140 to 142 °C; with `O=C(Oc1ccccc1)C(=O)Oc1ccc2c(c1)C(c1ccccc1)C(=O)O2` (stereo not drawn), 134 °C. The value for `CCOC(=O)CN1CCN(c2ccccc2[N+](=O)[O-])CC1` was 122 °C.

Compound `CN(C)C(=O)Nc1ccc(Oc2ccc3ccccc3c2)c(C(F)(F)F)c1` gave a melting point of 210 to 211 °C. In the case of `Clc1ccc2c(c1)C1(CN3CCC(Nc4ncccn4)CC3)CC2c2ccccc21` (stereo not drawn), the melting point fell in the range of 212 to 214 °C.

`O=C1Nc2ccccc2C12COc1ccc3c(c12)OCCO3` (stereo not drawn): the melting point was 259 to 261 °C. Take `CCOC(=O)C1=C(C)NC(C)=C(C(=O)OCC)C1c1ccccc1O`: the melting point fell in the range of 159 to 161 °C. With `COc1ccc2c(c1)CCC(=O)C2CC(=O)c1ccccc1` (stereo not drawn) the figure was 55 to 59 °C. The value for `COc1ccc(O)c(C2(CO)C(=O)N(Cc3ccc(C(F)(F)F)o3)c3cccc(Cl)c32)n1` (stereo not drawn) was 191 to 193 °C; that for `CSC(=O)c1c(C(F)F)nc(C(F)(F)F)c(C(=O)SC)c1NC(C)C` was 92 to 94 °C. `CN(C)c1ccc2nc(-c3cccc4ccccc34)[nH]c(=O)c2c1` registered a melting point of 254 to 255 °C.

In the case of `CC(C)(C)OC(=O)N1CCC(Cn2cc(S(=O)(=O)c3ccccc3)c3ccccc32)CC1`, the melting point is 181 to 182 °C. With `CCNC(=O)Nc1ccc2c(c1)C(=O)N(CCO[N+](=O)[O-])CO2` the figure was 142 to 144 °C; with `Cc1cc(C)c(COc2cccnc2NC(=N)Nc2ccc(Cl)cc2)c(C)c1`, 169 to 171 °C.

Consider `ONc1ccc(Cl)cc1`, for which the melting point was in the range of 83 to 84 °C.

`Cc1cccc(NC(=O)N2CCN(CC(=O)N3CC=C(c4cccc(C(F)(F)F)c4)n4ncc(C#N)c43)CC2)c1` yielded a melting point of 138 to 140 °C. `Cc1nc(-c2ccc(CCN3CCN(c4nsc5ccccc45)CC3)cc2)cs1`: the melting point fell in the range of 135 to 140 °C.

The compound `CCC(CC)c1ccc(C(F)(F)F)c2nc(Oc3c(C)cc(Cl)cc3Cl)n(C)c12` gave a melting point of 149 to 151 °C. Turning to `Cc1cc(-c2cc(C(F)(F)F)n3ncc(C(=O)Nc4cccc(S(=O)(=O)NC(C)(C)CO)c4)c3n2)ccc1C(F)(F)F`, the melting point was found to be 230 °C. With `COc1ccc(CCC(=O)CCC(Cc2ccc(OC)c(OC)c2)[N+](=O)[O-])cc1` (stereo not drawn) the figure was 87 to 89 °C.

On to `CC(=O)N1CCN2C(=O)N(c3cc(Cl)cc(Cl)c3)C(=O)C2(Cc2ccc(Br)cc2)C1` (stereo not drawn), for which the melting point was 89.6 °C. The value for `N=C(c1ccc(Cl)cc1)c1cc2ccccc2cn1` was 151 to 152 °C; that for `COc1ccc(N2CCN(c3c(C)c(C)c4c(c3C)C(O)(c3ccc(OC)cc3)C(C)(C)O4)CC2)cc1` (stereo not drawn) was 157 to 159 °C; that for `COC(=O)C1C2C=CC(C2)C1NC(=O)OCc1ccccc1` (stereo not drawn) was 73 to 76 °C. The value for `CCCCOc1ccc2c(c1)C(N(CCCO)S(C)(=O)=O)CC(C)(C)O2` (stereo not drawn) was 69 to 71 °C; that for `COc1nccc2cc(S(N)(=O)=O)oc12` was 204 to 206 °C. With `CN(C)c1ccc(/C=C/c2ccc(F)c(F)c2)cc1` the figure was 159 to 160 °C; with `O=C(c1ccc(Br)cc1)C(Br)C(Br)c1cccc(Br)c1` (stereo not drawn), 150 to 152 °C. For the compound `CCCS(=O)(=O)c1ccccc1S(=O)(=O)Cl`, the melting point was in the range of 74 to 77 °C.

The compound `Cc1ccc(NS(=O)(=O)c2ccccc2)cc1` showed a melting point of 118 to 119 °C. On to `CC1(C)OC(=O)C(=C(Nc2ccccc2Br)N2CCOCC2)C(=O)O1`, for which the melting point was in the range of 212 to 213 °C. With `CCOC(=O)c1cn2c(nc1=O)CCC2` the figure was 59 to 60 °C; with `COc1ccc2c(c1)C(N=Cc1ccc(O)c(OC)c1)CCO2` (stereo not drawn), 136 to 139 °C; with `CSc1ccc(CC(NC(=O)OCc2ccccc2)C(O)C#N)cc1` (stereo not drawn), 123 to 125 °C.

For the compound `CN1C(=O)N2C(=NC1(C)C)N(C(=O)NC1CCCCC1)c1ccccc12`, the melting point was in the range of 114 to 116 °C. The value for `CCCN1NCc2c(C3C(=O)Nc4ccc(F)cc43)ncnc21` (stereo not drawn) was 288 to 292 °C; that for `Cc1nc2cc(F)c(C)cc2c(=O)[nH]1` was 173 to 174 °C.

In turn, `CNc1ccc(N=O)cc1` came in with a melting point of 115 to 117 °C.

For the compound `Cn1c2ccccc2c(=O)n2nc(C(=O)O)cc12`, the melting point was 265 °C. In the case of `CCO[C@@H](Cc1ccc(OCCN2CCC(C)(C)c3cc(C(=NOC)c4ccc(C(=O)O)cc4)ccc32)cc1)C(=O)O`, the melting point lay within 83 to 85 °C. The value for `Cc1cc(-c2nc3ccccc3[nH]2)n[nH]1` was 322 to 324 °C; that for `CC1(C)Oc2cc3nc(SCc4ccccn4)[nH]c3cc2O1` was 210 to 211 °C.

In turn, `CC(C)(C)OC(=O)N1CC(CO)c2c1cc(OCc1ccccc1)c1ncccc21` (stereo not drawn) returned a melting point of 170 to 171 °C. The value for `COC(=O)c1ccc(/C=C/c2nc(-c3ccc4ccccc4c3)oc2C)cc1` was 216 to 217 °C; that for `O=C(O)C(=O)c1ccc(OCCOc2ccc(-c3ccccc3)cc2)cc1` was 179 to 180 °C; that for `O=[N+]([O-])c1cc(C(F)(F)F)cc([N+](=O)[O-])c1Nc1c(Cl)cncc1Cl` was 138 to 140 °C. With `CSc1c(N)nc(NCCCOC(C)C)nc1Cl` the figure was 245 °C; with `Cc1ccc([C@@H]2c3c(C)c(NC(=O)Cc4ccc(C(F)(F)F)cc4)c(C)c(C)c3OC2(C)C)cc1`, 187 to 189 °C; with `Cc1cc(C)n(-c2nnc3cc(Cl)ccc3n2)n1`, 174 °C. On to `NC(=O)c1nccn1C1Cc2cc(F)ccc2C1=O` (stereo not drawn), for which the melting point came out at 221 °C.

As for `CC(C)(N)C1CN([C@@H]2Cc3ccccc3[C@H]2Oc2ccc(C#N)cc2Cl)C1`, the melting point was found to be 93 °C. The value for `O=c1ccn(C2OC(CO)C(O)C2Br)c(=O)[nH]1` (stereo not drawn) was 194 to 195 °C; that for `CCN=C(NC(=O)OC(C)(C)C)Nc1cc(C(C)c2ccc(-c3ccccc3)c(F)c2)no1` (stereo not drawn) was 87 to 92 °C; that for `O=C(O)c1ccc(-c2csc(-c3ccc(Cl)cc3)n2)cc1` was 284 to 285 °C. With `CN1C(C(=O)Nc2nncs2)=C(O)c2ccc3ccccc3c2S1(=O)=O` the figure was 217 to 219 °C; with `COC(=O)c1ccc(CN(C(C)C)S(=O)(=O)c2ccc(F)cc2)cc1`, 118 to 120 °C; with `COc1ccnc2[nH]cc(C(C)=O)c12`, greater than 210 °C. Compound `COC(=O)c1cc(N(CCBr)CCBr)c(S(C)(=O)=O)cc1[N+](=O)[O-]` gave a melting point of 161 to 162 °C.

Regarding `Cc1cc(C)cc(CC(=O)c2ccncc2)c1`, the melting point was in the range of 96 to 97 °C. With `COC(=O)c1cccc(NC(=O)c2ccc(OC)c(N)c2)c1` the figure was 160 to 162 °C; with `O=C(NCc1ccc(Cl)cc1)c1cn(CCN2CCCCC2)c2ccc(C#CCO)cc2c1=O`, 176 to 180 °C; with `Cc1c(NCCO)c(F)cc2c(=O)c(C(=O)O)cn(-c3cc(N)c(F)cc3F)c12`, 166 to 168 °C. With `N#Cc1cc(S(=O)(=O)c2ccc(N)cc2)cc(Br)n1` the figure was 186 to 188 °C. As to `CCOC(=O)c1cccn2c(C(=O)OCC)c(Cl)nc12`, the melting point lay in the range of 105 to 106 °C. For the compound `C1CC(C23CSC(SC2)SC3)C1`, the melting point fell in the range of 112 to 114 °C. With `CCc1cc(Br)cc2nc(C(=O)OC)c(C(=O)OC)c(O)c12` the figure was 115 to 117 °C. With `Cn1ncc(/C=C/C(=O)Nc2ccc3[nH]c(=O)oc3c2)c1-c1ccc(F)cc1` the figure was greater than 300 °C. With `CC1(C)CCC(C)(C)c2ccccc21` the figure was 71 to 72 °C; with `O=C(CNC(=O)c1ccc([N+](=O)[O-])cc1[N+](=O)[O-])OCc1ccccc1`, 116 to 118 °C. Compound `CCOC(=O)C(=Cc1ccc(-c2nc3ccc(O)cc3o2)cc1)C(=O)OCC` came in with a melting point of 153 to 155 °C. The value for `COc1cc(C2CCN(C[C@@H](C)O)CC2)ccc1Nc1ncc2ccc(-c3ccccc3OC)n2n1` was 67 to 74 °C; that for `Cc1ccc(C=CC(=O)NNC(=O)CCc2cc(C(C)(C)C)c(O)c(C(C)(C)C)c2)cc1` was 274 to 275 °C. The value for `S=C=Nc1ccc(-c2nc(-c3cccnc3)no2)cc1` was 121 to 123 °C. The value for `OCc1ccc2cc(Cl)ccc2c1` was 134 to 137 °C; that for `O=C(CCc1ccccc1)Cn1ccnc1` was 172 to 173 °C; that for `O=[N+]([O-])c1ccc(SSn2nccn2)c(C(Cl)(Cl)Cl)c1` was 189 °C.

On to `O=C(O)Cc1cccc(NC(=O)NC2C(=O)N(CC(=O)N3CCCC3)c3ccccc3N(CC(=O)N3CCCC3)C2=O)c1`, for which the melting point lay within 228 to 230 °C. The value for `CCCCCCc1c(C(C)C)nc(C(C)C)c(CO)c1-c1ccccc1` was 71 to 72 °C; that for `Cc1c(C)c(O)c(CC[C@](C)(O)CO)c(C)c1O` was 124 to 132 °C; that for `O=C(Nc1ccc(Br)cc1)Nc1cc(C(F)(F)F)ccc1Oc1ccccc1C(=O)O` was 229 to 231 °C. The value for `C=CCOc1ccc(C(C)(C)C)cc1C(C(=O)O)c1ccccc1` (stereo not drawn) was 120 to 122 °C; that for `CCC(Oc1cccc(C)c1)C(=O)OC1CC(O)C=C2C=CC(C)C(CCC3CC(O)CC(=O)O3)C21` (mixture of isomers) was 147 to 149 °C.
